{
  "source": "patent US20070106232A1",
  "about": "“METHOD AND APPARATUS FOR EXTENDING FEEDING TUBE LONGEVITY” (priority 2003, published 2007)",
  "origin": "cited, not measured here",
  "key": {"[1]": {"tested_on": "Candida albicans and Candida parapsilosis biofilms"}, "[2]": {"tested_on": "yeast crust on inner surface of the tube", "details": "segments incubated in vitro overnight, endoscopic brush next day"}, "[3]": {"tested_on": "feeding tube colonized with Candida", "details": "nystatin suspension 500,000 units/5 mL in the off cycle; amphotericin B 1 mg/10 mL for one week; tube lumen filled"}, "[4]": {"tested_on": "fungal colonization of feeding tubes", "details": "pre-procedural preparation of the oropharynx, 1%"}, "Candida spp.": {"tested_on": "Candida spp.", "details": "including azole-resistant (Candida krusei), less susceptible (C. dubliniensis, C. glabrata) or amphotericin B resistant isolates"}, "[5]": {"tested_on": "Candida albicans biofilms"}, "[6]": {"tested_on": "Candida albicans biofilms", "details": "preformed Candida albicans biofilms; physiological concentrations; time-kill"}},
  "note": "Numbered stars: 1 amine (or outer) side, 2 acyl side, 3 side chain; on linkers, the order of the positions; unused ones are H or OH. Bridge positions count the residues as written; N and C are the ends. Square brackets hold non-standard residues; d marks the D form. Peptide text beside a SMILES is read from it. * marks the point of attachment. hTyr(3S-OH,4S-OH,3'-OSO3H) = N[C@H](C(=O)O)[C@H](O)[C@@H](O)c1ccc(O)c(OS(=O)(=O)O)c1; Orn(4R-OH,5R-OH) = O=C([C@H](C[C@@H](O)[C@@H](O)N[*:3])N[*:1])[*:2]; Pro(3S-OH,4S-Me) = C[C@H]1CN[C@H](C(=O)O)[C@H]1O; X1 = CCCCCOc1ccc(-c2cc(-c3ccc(C(=O)*)cc3)no2)cc1; Gln(3R-OH) = NC(=O)C[C@@H](O)[C@H](N)C(=O)O; Hyp = O=C(O)[C@@H]1C[C@@H](O)CN1",
  "data": [
    {"compound": "C[C@@H]1[C@H](O)[C@@H](C)/C=C/C=C/CC/C=C/C=C/C=C/C=C/C(O[C@H]2O[C@H](C)[C@@H](O)[C@H](N)[C@@H]2O)CC2O[C@](O)(CC(O)C(O)CCC(O)CC(O)CC(O)CC(=O)O[C@H]1C)CC(O)C2C(=O)O", "note": "(some centres unmarked) [nystatin]", "values": [
      {"measurement": "activity against Candida biofilms", "setting": "[1]", "result": "resistant"},
      {"measurement": "clearing the yeast crust from the inner surface of the tube", "setting": "[2]", "result": "unsuccessful"},
      {"measurement": "clearing of a feeding tube colonized with Candida", "setting": "[3]", "result": "unsuccessful"}
    ]},
    {"compound": "neomycin", "values": [
      {"measurement": "prophylaxis of fungal colonization of feeding tubes", "setting": "[4]", "result": "failed"}
    ]},
    {"compound": "OC(Cn1cncn1)(Cn1cncn1)c1ccc(F)cc1F", "note": "[fluconazole]", "values": [
      {"measurement": "activity against Candida biofilms", "setting": "[1]", "result": "resistant"}
    ]},
    {"compound": "C[C@@H](c1ncncc1F)[C@](O)(Cn1cncn1)c1ccc(F)cc1F", "note": "[voriconazole]", "values": [
      {"measurement": "activity against Candida biofilms", "setting": "[1]", "result": "resistant"}
    ]},
    {"compound": "C[C@@H]1[C@H](O)[C@@H](C)/C=C/C=C/C=C/C=C/C=C/C=C/C=C/[C@H](O[C@@H]2O[C@H](C)[C@@H](O)[C@H](N)[C@@H]2O)C[C@@H]2O[C@](O)(C[C@@H](O)C[C@@H](O)[C@H](O)CC[C@@H](O)C[C@@H](O)CC(=O)O[C@H]1C)C[C@H](O)[C@H]2C(=O)O", "note": "[amphotericin B]", "values": [
      {"measurement": "activity against Candida biofilms", "setting": "[1]", "result": "resistant"},
      {"measurement": "clearing the yeast crust from the inner surface of the tube", "setting": "[2]", "result": "unsuccessful"},
      {"measurement": "clearing of a feeding tube colonized with Candida", "setting": "[3]", "result": "unsuccessful"}
    ]},
    {"compound": "CC[C@H](C)C[C@H](C)CCCCCCCCC(=O)N[C@H]1C[C@@H](O)[C@@H](NCCN)NC(=O)[C@@H]2[C@@H](O)CCN2C(=O)[C@H]([C@H](O)CCN)NC(=O)[C@H]([C@H](O)[C@@H](O)c2ccc(O)cc2)NC(=O)[C@@H]2C[C@@H](O)CN2C(=O)[C@H]([C@@H](C)O)NC1=O", "note": "[caspofungin]", "values": [
      {"measurement": "activity against Candida spp.", "setting": "Candida spp.", "result": "active"},
      {"measurement": "activity against Candida biofilms", "setting": "[1]", "result": "showed activity"},
      {"measurement": "effect of coating of biomaterials on subsequent biofilm development by Candida albicans", "setting": "[5]; biomaterials coated with drug", "result": "inhibitory effect"},
      {"measurement": "effects on preformed Candida albicans biofilms", "setting": "[5]; scanning electron microscopy and confocal scanning laser microscopy", "result": "altered the cellular morphology and the metabolic status"},
      {"measurement": "minimum inhibitory concentration at which 50% of the sessile cells were inhibited", "setting": "[5]; sessile Candida albicans cells", "result": "well within the drug's therapeutic range"},
      {"measurement": "in vitro activity against sessile Candida albicans cells within biofilms", "setting": "[5]; sessile cells within biofilms", "result": "potent in vitro activity"},
      {"measurement": "killing", "setting": "[6]", "result": "≥ 99", "unit": "%"}
    ]},
    {"compound": "C[C@@H](c1nc(-c2ccc(C#N)cc2)cs1)[C@](O)(Cn1cncn1)c1ccc(F)cc1F", "note": "[ravuconazole]", "values": [
      {"measurement": "activity against Candida biofilms", "setting": "[1]", "result": "resistant"}
    ]},
    {"compound": "[H]/N=C(\\N/C(=N/[H])NCCCCCCNC(=N)NC(=N)Nc1ccc(Cl)cc1)Nc1ccc(Cl)cc1", "note": "[chlorhexidine]", "values": [
      {"measurement": "activity against Candida biofilms", "setting": "[1]", "result": "resistant"}
    ]},
    {"compound": "CCCCCOc1ccc(-c2cc(-c3ccc(C(=O)N[C@H]4C[C@@H](O)[C@@H](O)NC(=O)[C@@H]5[C@@H](O)[C@@H](C)CN5C(=O)[C@H]([C@H](O)CC(N)=O)NC(=O)[C@H]([C@H](O)[C@@H](O)c5ccc(O)c(OS(=O)(=O)O)c5)NC(=O)[C@@H]5C[C@@H](O)CN5C(=O)[C@H]([C@@H](C)O)NC4=O)cc3)no2)cc1", "note": "[micofungin] (X1-[Orn(4R-OH,5R-OH)]T[Hyp][hTyr(3S-OH,4S-OH,3'-OSO3H)][Gln(3R-OH)][Pro(3S-OH,4S-Me)]; lactam 1-C)", "values": [
      {"measurement": "activity against Candida biofilms", "setting": "[1]", "result": "showed activity"}
    ]},
    {"compound": "CN(C/C=C/C#CC(C)(C)C)Cc1cccc2ccccc12", "note": "[terbenafine]", "values": [
      {"measurement": "activity against Candida biofilms", "setting": "[1]", "result": "resistant"}
    ]}
  ]
}
